The target in data set [1] is T1, Protein tyrosine phosphatase 1B (human recombinant) (Homo sapiens, UniProt P18031).
T1 construct: purchased Biomol International LP, Plymouth Meeting, Pennsylvania, PA, USA
T1 sequence (P18031 1-435): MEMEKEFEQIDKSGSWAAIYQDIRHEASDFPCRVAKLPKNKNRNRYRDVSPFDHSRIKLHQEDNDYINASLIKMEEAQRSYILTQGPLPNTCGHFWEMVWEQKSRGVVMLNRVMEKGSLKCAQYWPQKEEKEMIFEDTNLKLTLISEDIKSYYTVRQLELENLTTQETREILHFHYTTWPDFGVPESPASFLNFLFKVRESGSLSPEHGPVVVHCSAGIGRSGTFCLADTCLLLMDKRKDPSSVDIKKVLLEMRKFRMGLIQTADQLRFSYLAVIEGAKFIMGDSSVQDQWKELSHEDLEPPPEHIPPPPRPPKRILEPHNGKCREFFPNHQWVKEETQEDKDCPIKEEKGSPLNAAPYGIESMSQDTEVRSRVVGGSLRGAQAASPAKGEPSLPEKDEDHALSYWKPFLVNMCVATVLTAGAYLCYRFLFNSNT
Description: Protein tyrosine phosphatase 1B inhibition assay (p-NPP substrate). The class given is biochemical. Conditions: means ± SD of three replicates; read-out: PTP1B IC50. The protocol: Protein tyrosine phosphatase 1B (human recombinant), i.e., PTP1B, was purchased from Biomol International LP, Plymouth Meeting, Pennsylvania, PA, USA, and the inhibitory activities of the tested samples were evaluated using the method as described. In a typical procedure, 0.05–0.1 μg of PTP1B (BIOMOL International L.P., Plymouth Meeting, Pennsylvania, PA, USA) and 4 mM p-NPP in a buffer containing 1 mM dithiothreitol, 0.1 M NaCl, 1 mM EDTA, and 50 mM citrate (pH 6.0), with or without test compounds, were added, with 100 μL final volume to each of the 96 wells. After the reaction mixture was incubated at 37 °C for 30 min, 10 M NaOH was added to quench the reaction. PTP1B enzyme activity was determined by the amount of produced p-nitrophenol at 405 nm. The nonenzymatic hydrolysis of the substrate was corrected by measuring the control, which contained no PTP1B enzyme.

The target in data set [2] is α-glucosidase. Description: α-Glucosidase inhibition assay (pNPG substrate). It is filed as biochemical. Conditions: means ± SD of three replicates. The protocol:
The inhibitory activity of α-glucosidase was determined according to the modified method with a readily available enzyme. In a typical procedure, α-glucosidase (0.1 U/mL, Wako) was dissolved in 100 mM sodium phosphate buffer (pH 6.8) and used as an enzyme solution. A total of 1 mM p-Nitrophenyl-α-D-glucopyranoside (pNPG) in the same buffer (pH 6.8) was used as a substrate solution. […] After substrate solution (95 μL) was added, the sample solution was incubated for another 10 min at 37 °C incubator. Enzymatic activity was quantified by measuring absorbance at 405 nm using an enzyme-linked immunosorbent assay (ELISA) microplate reader (D.I Biotech Ltd., Seoul, Korea).

For data set [3], the system named is Candida albicans. Further details: method as in PMID 33971509. Conditions: cited from earlier work.
The test system of data set [4] is nitric oxide production. Further details: method as in PMID 26753624. Conditions: cited from earlier work.
For data set [5], the system named is A549 cells. Further details: method as in PMID 25470278. The following applies: cited from earlier work.
Data set [6] relates to A549 cells. Further details: method as in PMID 25470278. Conditions: applied before 60Co γ-irradiation; cited from earlier work.
Data set [7] relates to Staphyloccocus aureus (ATCC25923). Further details: method as in PMID 23651559. The following applies: cited from earlier work.
Data set [8] concerns Staphylococcus epidermidis (ATCC12228). Further details: method as in PMID 23651559. Conditions: cited from earlier work.
In data set [9] the test system is Bacillus subtilis (ATCC6633). Further details: method as in PMID 23651559. The following applies: cited from earlier work.
Data set [10] relates to HepG2. Further details: method as in PMID 23651559. Conditions: HepG2, MTT method; cited from earlier work. (In general: Tetrazolium assays rely on reduction of a dye to a coloured formazan, in cell work by metabolically active cells.)
For data set [11], the system named is Hela. Further details: method as in PMID 23651559. The following applies: MTT method; cited from earlier work.
Data set [12] deals with BEL7402. Further details: method as in PMID 23651559. The following applies: BEL7402, MTT method; cited from earlier work.
In data set [13] the test system is BEL7403. Further details: method as in PMID 23651559. Conditions: BEL7403, MTT method; cited from earlier work.
The test system of data set [14] is Jurkat T cells clone E6.1. Further details: method as in doi:10.5012/bkcs.2010.31.04.1081. The following applies: Jurkat T cells clone E6.1, MTT method; cited from earlier work.
The test system of data set [15] is experimental liver cancer cells in rats. Further details: method as in ref 32 = [32]; 32. Bai J.W. Zhang Y. Yang M.J. Effects of schinifoline on cytoskeleton of experimental hepatoma in rats observed by whole mount cell transmission electron microscopy Beijing Zhongyiyao Daxue Xuebao 2. The following applies: by influencing cytoskeleton; cited from earlier work.
Data set [16] has as its system experimental hepatocarcinogenesis. Further details: method as in ref 33 = [33]; 33. Bai J.W. Zhang Y. Wu J. Flow cytometric analysis of the schinifoline inhibition on rat hepatoma cell induced by DEN Beijing Zhongyiyao Daxue Xuebao 1999 22 34 35. Conditions: by inhibiting hepatoma cell's DNA synthesis; cited from earlier work.
The test system of data set [17] is aldose reductase. Further details: method as in PMID 17498942. Conditions: cited from earlier work.
The subject of data set [18] is sorbitol accumulation. Further details: method as in PMID 17498942. The following applies: at 100 μM; cited from earlier work.
In data set [19] the test system is obese/diabetic KK-Ay mice. Further details: method as in PMID 24391749. Conditions: cited from earlier work.
The subject of data set [20] is peroxisome proliferator-activated receptors (PPARs). Further details: method as in PMID 30827999. Conditions: cited from earlier work.

The values below come from publication PMC8233831, “On the Inhibitability of Natural Products Isolated from Tetradium ruticarpum towards Tyrosine Phosphatase 1B (PTP1B) and α-Glucosidase (3W37): An In Vitro and In Silico Study” (Molecules, 2021).

Like-named read-outs stand apart in the source and are kept apart here.

Take `CCCCCCCc1cc(=O)c2ccccc2n1C` [Compound 1, 2-heptyl-1-methylquinolin-4-one]: the results for the IC50 in data set [1] and in data set [2] were 24.3 ± 0.8 µM and 92.1 ± 0.8 µM, respectively. Further, the “effect on negative effects of Candida albicans in vivo” value in data set [3] was “inhibited the negative effects of Candida albicans in vivo”. The “in vitro inhibitory effect on nitric oxide production” value in data set [4] is recorded as “did not show in vitro inhibitory effect”. Also, the “cytotoxicity on A549 cells IC50” value in data set [5] (6 h treatment) is 33.7 ± 2.4 µg/mL; in [5] (12 h treatment), 21.9 ± 1.9 µg/mL; in data set [5] (24 h treatment), 16.8 ± 2.2 µg/mL. The “radio-sensitivity of A549 cells” value in data set [6] is listed as “enhanced the radio-sensitivity of A549 cells”. The antibacterial activity entry in [7], in data set [8] and in data set [9] was “no antibacterial activity” in each case. Besides, the cytotoxicity entry in data set [10], in [11], in data set [12], in data set [13] and in data set [14] was “no cytotoxicity” in each case. The “treatment of experimental liver cancer cells in rats” value in [15] was “can be used to treat experimental liver cancer cells in rats”. The “treatment of experimental hepatocarcinogenesis” value in [16] is on record as “can treat experimental hepatocarcinogenesis”.

Regarding `CC(=CCOc1ccc(C=CCO)cc1)CO` [Compound 2, 3-[4-(4-methylhydroxy-2-butenyloxy)-phenyl]-2-propenol], the IC50 (usually the midpoint of a concentration-inhibition curve) in [1] amounted to 47.7 ± 1.1 µM; in data set [2] it was 167.4 ± 1.4 µM. Further, the “in vitro inhibitory effect on nitric oxide production” value in [4] is recorded as “did not show in vitro inhibitory effect”.

Consider `CNc1ccccc1C(=O)N1CCc2c([nH]c3ccccc23)C1=O` [rhetsinine], for which, in data set [17], the aldose reductase inhibition result is reported as “inhibited aldose reductase in a dose-dependent manner”. For the same compound, the “inhibition of sorbitol accumulation” value in [18] is reported as 79.3%.

As to evodiamine, the “obesity and insulin resistance” value in data set [19] is “reduced obesity and insulin resistance”. The “activation of PPARs” value in [20] is reported as “activate peroxisome proliferator-activated receptors”.
